{
  "source": "patent US20240010989A1",
  "about": "“MEDIUM FOR CULTURING AND EXPANDING NEPHRON PROGENITOR CELLS, METHOD FOR CULTURING AND EXPANDING NEPHRON PROGENITOR CELLS, AND METHOD FOR PRODUCING RENAL ORGANOIDS” (Kyoto University, priority 2021, published 2024)",
  "format_in_all_cases": "cell-based, human",
  "key": {"hNPC (c-MET(+)) [1]": {"test_system": "hNPC (c-MET(+))", "assay": "Expression of NPC markers OSR1 and SIX2 in subcultured hNPC (c-MET(+))", "conditions": "3 nM in CFY medium, subculture of hNPC (c-MET(+))", "method": "(§1) Ten μL of human-HGFR/c-MET antibody to which the fluorescent substance APC had been bound (FAB 3582A, R&D Systems Inc.) was added to 100 μL of the 2% FBS suspension of the induced hNPC cells prepared above, and the resultant was left to stand for 30 minutes on ice. After 30 minutes, the sample was centrifuged at 200 g for 5 minutes, the supernatant was removed, the residue was washed with 1 mL of PBS, and the sample was once again centrifuged at 200 g for 5 minutes and the supernatant removed. This operation was conducted twice. […]\n(§2) A cell mass of the human iPS cell-derived NPC (hNPC) cultured in the test medium was transferred to a 1.5 ml tube, the supernatant was removed completely, 30 μL of Accumax (Innovative Cell Technologies, Inc.) was added, and the resultant was left to stand for 10 minutes in an incubator at 37° C. and 5% CO2. After 10 minutes, the sample was suspended in 470 μL of 10% FBS, and the cell count was measured with a TC20 (Bio-Rad Laboratories, Inc.). […] Subsequently, 48 hours after this additional administration, the above operations were repeated, with the cell count being measured and a subculture conducted.\n(§3) Expression of OSR1 and SIX2 was confirmed by conducting a culture test using these human iPS cells, and detecting the respective fluorescence from the GFP and tdTomato using a fluorescence microscope. […]"}, "hNPC (c-MET(+)) [2]": {"test_system": "hNPC (c-MET(+))", "assay": "Cell growth (cumulative cell count) in subculture of hNPC (c-MET(+))", "conditions": "3 nM in CFY medium vs CFY+DMSO", "method": "as §1\n(§4) Subsequently, 48 hours after the start of the static culture, an additional 100 μL of the same medium as that used at the time of cell inoculation was administered to each well. […] After 10 minutes, the sample was suspended in 470 μL of 10% FBS, and the cell count was measured with a TC20 (Bio-Rad Laboratories, Inc.).\nA cell mass of the human iPS cell-derived NPC (hNPC) cultured in the test medium was transferred to a 1.5 ml tube, the supernatant was removed completely, 30 μL of Accumax (Innovative Cell Technologies, Inc.) was added, and the resultant was left to stand for 10 minutes in an incubator at 37° C. and 5% CO2. After 10 minutes, the sample was suspended in 470 μL of 10% FBS, and the cell count was measured with a TC20 (Bio-Rad Laboratories, Inc.). […]"}, "hNPC (Bulk) [3]": {"test_system": "hNPC (Bulk)", "assay": "Cell growth (cell count, cumulative cell count) of hNPC (Bulk)", "conditions": "3 nM in CFY medium (CFY+TG(3)) vs CFY+DMSO", "method": "The hNPC were suspended in 50 μL of a test medium in sufficient amount to achieve 2.0×10^4 cells per well, and the suspension was then used to inoculate a low-attachment 96-well plate (Nunc), and following centrifuging at 300 g for 3 minutes, the cells were subjected to a static culture in an incubator at 37° C. and 5% CO2. Six hours after starting the static culture, a cell mass had formed.\nas §4\nas §2, with “conducted. […]” for “conducted.”"}, "hNPC (Bulk) [4]": {"test_system": "hNPC (Bulk)", "assay": "Production of renal organoids from subcultured hNPC (Bulk)", "conditions": "3 nM in CFY medium, cells of passage 2", "method": "A cell mass of hNPC that had been subcultured in the test medium were placed in a Transwell (Corning), and the surrounding medium was removed. Next, the Transwell with the cell mass thereon was set in a culture dish that had been filled with 5% KSR (Kock-out Serum Replacement) (Thermo Fisher Scientific) to which 200 ng/mL of FGF2 and 5 μM of CHIR99021 had been added in advance. After 48 hours, the medium was replaced with 5% KSR containing no added growth factors or low-molecular weight compounds. Thereafter, the medium was replaced every 48 hours with fresh 5% KSR containing no added growth factors or low-molecular weight compounds, and on the 10th day after starting the differentiation culture, the cells were fixed for 3 hours at 4° C. using 4% PFA without removal from the Transwell. Following fixing, the medium was replaced with PBS, and after standing overnight at 4° C., immunostaining was conducted.\nBright field images of renal organoids were captured using either a KEYENCE BZ-X700 or a confocal microscope (Zeiss LSM710). Image analysis was performed using Image J version 1.51j8 (National Institutes of Health) (C. A. Schneider, et al., Nat Methods. 9 (2012) 671 to 675.).\nAttempts were made to produce renal organoids from hNPC (Bulk) that had been subcultured using either the hNPSR medium or the CFY medium."}, "hNPC (Bulk) [5]": {"test_system": "hNPC (Bulk)", "assay": "Expression of NPC markers SIX2 and OSR1 in subcultured hNPC (Bulk)", "conditions": "3 nM in CFY medium, subculture of hNPC (Bulk)", "method": "A cell mass of the human iPS cell-derived NPC (hNPC) cultured in the test medium was transferred to a 1.5 ml tube, the supernatant was removed completely, 30 μL of Accumax (Innovative Cell Technologies, Inc.) was added, and the resultant was left to stand for 10 minutes in an incubator at 37° C. and 5% CO2. After 10 minutes, the sample was suspended in 470 μL of 10% FBS, and the cell count was measured with a TC20 (Bio-Rad Laboratories, Inc.). The human iPS cell-derived NPC were suspended in the test medium and then used to inoculate a low-attachment 96-well plate (Nunc) in an amount of 2.0×10^4 cells per well. This low-attachment 96-well plate that had been inoculated with the cells was centrifuged at 300 g for 3 minutes, and the cells were then subjected to static culture in an incubator at 37° C. and 5% CO2. Then, 48 hours after starting this static culture, an additional 100 μL of the test medium was administered to each well. Subsequently, 48 hours after this additional administration, the above operations were repeated, with the cell count being measured and a subculture conducted.\nas §3"}, "hNPC (c-MET(+)) [6]": {"test_system": "hNPC (c-MET(+))", "assay": "Production of renal organoids from subcultured hNPC (c-MET(+))", "conditions": "3 nM in CFY medium, cells of passage 1", "method": "Ten μL of human-HGFR/c-MET antibody to which the fluorescent substance APC had been bound (FAB 3582A, R&D Systems Inc.) was added to 100 μL of the 2% FBS suspension of the induced hNPC cells prepared above, and the resultant was left to stand for 30 minutes on ice. After 30 minutes, the sample was centrifuged at 200 g for 5 minutes, the supernatant was removed, the residue was washed with 1 mL of PBS, and the sample was once again centrifuged at 200 g for 5 minutes and the supernatant removed. This operation was conducted twice. The cells obtained following removal of the supernatant were suspended in DAPI that had been diluted 1,000-fold with 2% FBS, and following filtration through a 40 μm filter, flow cytometry was used to extract the c-MET-positive cells.\nA cell mass of hNPC that had been subcultured in the test medium were placed in a Transwell (Corning), and the surrounding medium was removed. Next, the Transwell with the cell mass thereon was set in a culture dish that had been filled with 5% KSR (Kock-out Serum Replacement) (Thermo Fisher Scientific) to which 200 ng/mL of FGF2 and 5 μM of CHIR99021 had been added in advance. After 48 hours, the medium was replaced with 5% KSR containing no added growth factors or low-molecular weight compounds. […]"}, "hiPSC": {"test_system": "hiPSC", "assay": "Differentiation induction efficiency of SIX2-positive cells, hNPC from hiPSC (differentiation induction method B)", "method": "<Method for Differentially Inducing hNPC from hiPSC (Differentiation Induction Method B)> • 1. Undifferentiated hiPSC were converted to single cells using a TrypLE Select Enzyme (Gibco), and then using a medium prepared using DMEM/F12 Glutamax (Invitrogen) supplemented with B27 as the basal medium and adding 1 μM of CHIR99021, 10 nM of retinoic acid, 1 ng/ml of BMP4, 100 ng/ml of FGF2, 10 μM of Y-27632 and iMatrix-511 (Nippi) to this basal medium, plating was conducted at a density within a range from 1.0×10^4 cells/well to 5.0×10^4 cells/well, and the cells were then incubated for 24 hours at 37° C. (production of a late posterior epiblast: step 1). • 2. On day 1, medium replacement was conducted using a medium prepared by adding 5 μM of CHIR99021, 1 ng/ml of BMP7 and 100 ng/ml of FGF2 to the same basal medium as above (production of a mesodermal-lineage primitive streak: step 2). • 3. On day 2, medium replacement was conducted using a medium prepared by adding 5 μM of CHIR99021, 1 ng/ml of BMP7, 100 ng/ml of FGF2 and 10 μM of A83-01 to the same basal medium as above (production of a mesodermal-lineage late primitive streak: step 3). • 4. On day 3, medium replacement was conducted using a medium prepared by adding 5 μM of CHIR99021, 100 ng/ml of FGF2, 1 ng/ml of BMP7, 10 ng/ml of activin A and 30 μM of Y-27632 to the same basal medium (production of a metanephric-lineage late primitive streak: step 4). • 5. On day 6, medium replacement was conducted using a medium prepared by adding 100 nM of retinoic acid, 200 ng/ml of FGF9 and 25 ng/ml of Noggin to the same basal medium (production of a late posterior intermediate mesoderm: step 5). • 6. On day 8, medium replacement was conducted using a medium prepared by adding 1 μM of CHIR99021 and 200 ng/ml FGF9 to the same basal medium (production of hNPC: step 6)."}},
  "data": [
    {"compound": "Cc1cnc(Nc2ccc(OCCN3CCCC3)cc2)nc1Nc1cccc(S(=O)(=O)NC(C)(C)C)c1", "note": "[TG101348]", "values": [
      {"measurement": "expression of both OSR1 and SIX2", "setting": "hNPC (c-MET(+)) [1]", "result": "maintained up until passage 3"},
      {"measurement": "cell growth (cumulative cell count)", "setting": "hNPC (c-MET(+)) [2]", "result": "better promoted in all passages"},
      {"measurement": "cell growth (cell count)", "setting": "hNPC (Bulk) [3]", "result": "promoted more"},
      {"measurement": "renal organoid formation", "setting": "hNPC (Bulk) [4]", "result": "formed"},
      {"measurement": "expression of both OSR1 and SIX2", "setting": "hNPC (Bulk) [5]", "result": "maintained up until passage 3"},
      {"measurement": "renal organoid formation", "setting": "hNPC (c-MET(+)) [6]", "result": "formed"}
    ]},
    {"compound": "FGF2: fibroblast growth factor 2 (basic FGF)", "values": [
      {"measurement": "induction efficiency into hNPC", "setting": "hiPSC; FGF2 concentration in step 4 reduced to 10 ng/mL or less", "result": "decreased"},
      {"measurement": "hNPC induction efficiency", "setting": "hiPSC; concentration of FGF2 in step 3 varied (100, 30, 10 ng/ml)", "result": "no effect"}
    ]},
    {"compound": "heparin", "values": [
      {"measurement": "hNPC induction efficiency", "setting": "hiPSC; 0.18 U/ml (1 μg/ml) heparin added with FGF2 in step 4", "result": "no effect"},
      {"measurement": "hNPC induction efficiency", "setting": "hiPSC; 0.18 U/ml (1 μg/ml) heparin added with FGF9 in step 5", "result": "no effect"}
    ]}
  ]
}
